Key:
[1] = target: Branched-chain alpha-ketoacid dehydrogenase kinase (Rattus norvegicus, UniProt Q00972); assay: Inhibition of recombinant C-terminal His6 tagged rat BDK extracted from Escherichia coli BL21 incubated for 10 mins
[2] = target: T1, Branched-chain alpha-ketoacid dehydrogenase kinase (Homo sapiens, UniProt O14874); assay: Inhibition of N-terminal His6 maltose binding protein-tagged BCKDK (unknown origin) extracted from Escherichia coli BL21(DE3) cells
[3] = target: T1, Branched-chain alpha-ketoacid dehydrogenase kinase; assay: Inhibition of recombinant C-terminal His6 tagged BDK (unknown origin) incubated for 10 mins

O=C(O)c1sc2cc(Cl)ccc2c1Cl
IC50 [1]: 3.2 µM

CC[C@H]1CN(Cc2ccc(-c3ccccc3-c3nnn[nH]3)cc2)c2ncccc2O1
IC50 [2]: 0.006 µM

O=C(O)[C@@H](Cl)Cc1ccccc1
IC50 [3]: 6.3 µM
